The results in this text go back to patent US12552737B2, “Salts of (2R, 6R)-hydroxynorketamine, their crystal forms, and methods of making the same” (THE UNITED STATES OF AMERICA, AS REPRESENTED BY THE …, priority 2019, dated 2026).

Molecules are shown by their SMILES.

Series [1] is described as follows: Dynamic vapor sorption (DVS) sorption-desorption. In kind it is physicochemical. Particulars: for hygroscopicity: DVS, water, 25° C., 0% RH to 95% RH. The method, then: Dynamic Vapor Sorption (DVS)
Typically, 20-50 mg of the test substances were mounted in a gauze basket and transferred to the sample port. Excess static electricity was removed throughout sample handling and sample mounting using a 210Po static eliminator. Instrument performance checks were completed using traceable samples of sodium chloride and lithium chloride.

For series [2] the following is noted: based on X-ray powder diffraction data.
Method: X-Ray Powder Diffraction (XRPD)
X-ray powder diffractograms were acquired using a Bruker D5000 diffractometer in Bragg-Brentano configuration. Extended acquisition parameters were employed for each batch of the drug substance, as detailed below. • Acquisition parameters: • Source: CuKα • Wavelength: 1.5406 Å • Scan range: 2-40° (2θ) • Step size: 0.01° (2θ) • Time per step: 4.0 s • Divergence slit width: 2 mm • Antiscatter slit width: 2 mm • Detector slit width: 0.2 mm • Sample rotation: Engaged • Tube accelerating potential: 40 kV • Tube accelerating current: 30 mA • Temperature: Ambient (nominally 18-22° C.)
Approximately 2 mg of each sample was mounted on a silicon base for the analyses.
All the data were smoothed by use of Fourier algorithms and the background was subtracted from each diffractogram. Instrument performance checks were completed prior to measurements using a NIST traceable standard of corundum and also using a standard of Arkansas stone quartz.
Dynamic vapor sorption-desorption experiments were carried out using a DVS Resolution instrument supplied by Surface Measurement Systems. […]

`NC1(c2ccccc2Cl)CCCC(O)C1=O.O=C(O)CC(=O)O` (stereo not drawn) [RR-HNK malonate, 2R,6R-hydroxynorketamine (RR-HNK) Malonate]: the hygroscopicity entry in series [1] is “non-hygroscopic”; in series [1] (listed as (2R,6R)-hydroxynorketamine malonate), “very low hygroscopicity”.
On to `N[C@@]1(c2ccccc2Cl)CCC[C@@H](O)C1=O.O=C(O)c1ccccc1O` [RR-HNK salicylate, 2R,6R-hydroxynorketamine (RR-HNK) Salicylate], for which the hygroscopicity result is “non-hygroscopic” in series [1] and “very low hygroscopicity” in series [1] (listed as (2R,6R)-hydroxynorketamine salicylate). Besides, the “water acquired in DVS isotherm” value in series [1] (over the entire range of relative humidities (0% RH to 95% RH)) is listed as “acquires very little water”. In series [2], the “change of physical form on exposure to elevated relative humidities” value is “does not change the physical form”.
